{
  "source": "patent US20050038118A1",
  "about": "“Treatment” (priority 2003, published 2005)",
  "key": {"human Rhinovirus (HRV) [1]": {"system": "human Rhinovirus (HRV)", "assay": "In vivo Study II: human volunteers pre-treated with CLA, intranasal human Rhinovirus challenge, Jackson Score", "method": "The following protocol was used in all of Examples 4 to 10.\n76 human volunteers suffering from the common cold were used in the study. 43 subjects were administered conjugated linoleic acid (CLA) and the other 33 subjects were given a placebo. The CLA used contained a 40:60 mixture of cis9, trans11: trans10, cis12 isomers.\nThe 43 subjects underwent pre-treatment with CLA at a level of 2 g/day for 4 weeks. 33 subjects underwent pre-treatment with placebo (HOSF; high oleic sunflower […]).\n(§1) All subjects were inoculated at day 0 by intranasal exposure to human Rhinovirus (HRV) and the two groups were monitored daily for the next 5 days. The effects of the two types of treatment were determined by using the Jackson Score (validated in severity of symptoms) and the effects of the symptoms on its own on day 0-5.\nSymptoms were assessed using a Jackson Score validated in severity from 0=absent to 3=very severe."}, "human Rhinovirus (HRV) [2]": {"system": "human Rhinovirus (HRV)", "assay": "In vivo study: human volunteers pre-treated with CLA, intranasal human Rhinovirus challenge, Jackson Score", "conditions": "CLA 1.7 g/day for 4 weeks pre-treatment", "method": "45 human volunteers suffering from the common cold were used in the study. 21 subjects were administered conjugated linoleic acid (CLA) and the other 24 subjects were given a placebo.\nThe 21 subjects underwent pre-treatment with CLA at a level of 1.7 g/day for 4 weeks. 24 subjects underwent pre-treatment with placebo (HOSF; high oleic sunflower […]).\nas §1\nSymptoms were assessed using a Jackson Score validated in severity from 0=absent to 3=very severe. The following symptoms were rated:\nThe primary endpoint for the study was the frequency of clinical colds defined in accordance with the modified Jackson criteria.\nTotal symptoms of the individuals were checked in the morning (am) and in the afternoon (pm). The results of the test in the afternoon are shown in FIG. 2 and the results of the test in the morning are shown in FIG. 3; both plots are of Total Symptom Score against number of days. In FIGS. 2 and 3, results for the group of people treated with CLA are shown on the left in grey (Series 1) and for people given the placebo are shown on the right in dark grey (Series 2).\nThe symptoms assessed were sneezing, runny nose, obstruction, stuffiness, sore throat, cough, headache, malaise and chilliness. The total symptom score was determined by adding the scores for the symptoms during the 5 day period. FIG. 4 is a graph showing total symptom score and individual symptoms for the CLA group (light grey bars) and the placebo group (dark grey bars)."}, "[3]": {"conditions": "CLA 2 g/day for 4 weeks pre-treatment"}},
  "data": [
    {"substance": "conjugated linoleic acid [CLA]", "values": [
      {"measurement": "reduction in Jackson cold severity versus placebo", "setting": "human Rhinovirus (HRV) [1]; [3]", "result": "about 12%"},
      {"measurement": "reduction in total Jackson score over 5 days versus placebo", "setting": "human Rhinovirus (HRV) [1]; [3]", "result": "about 7%"},
      {"measurement": "average total Jackson score over 5 days", "setting": "human Rhinovirus (HRV) [1]; CLA 2 g/day for 4 weeks pre-treatment, AM and PM, five days post inoculation, placebo 9.30", "result": 8.72},
      {"measurement": "total runny nose score in 5 days", "setting": "human Rhinovirus (HRV) [1]; CLA 2 g/day for 4 weeks pre-treatment, ranking 1-3, AM and PM, five days, placebo 2.14", "result": 2.025},
      {"measurement": "total sneezing score in 5 days", "setting": "human Rhinovirus (HRV) [1]; CLA 2 g/day for 4 weeks pre-treatment, ranking 1 to 3, AM and PM, five days, placebo 1.2", "result": 0.5},
      {"measurement": "total sore throat score for 5 days", "setting": "human Rhinovirus (HRV) [1]; CLA 2 g/day for 4 weeks pre-treatment, ranking 1 to 3, AM and PM, five days, placebo 3.1", "result": 2.5},
      {"measurement": "total symptom score over 5 days", "setting": "human Rhinovirus (HRV) [1]; CLA 2 g/day for 4 weeks pre-treatment, sum of symptom scores during 5 day period, placebo 12.1", "result": 11.3},
      {"measurement": "Jackson cold severity, average score", "setting": "human Rhinovirus (HRV) [1]; CLA 2 g/day for 4 weeks pre-treatment, total score (from 10), AM and PM, five days post inoculation, placebo 1.09", "result": 0.975},
      {"measurement": "volunteers not infected", "setting": "human Rhinovirus (HRV) [1]; CLA (40:60 cis9,trans11:trans10,cis12) 2 g/day for 4 weeks pre-treatment, all placebo volunteers infected", "result": "Seven out of the 43"},
      {"measurement": "severity of the common cold (Jackson Score) versus placebo", "setting": "human Rhinovirus (HRV) [2]; at day 2 after HRV inoculation, FIG. 1", "result": "lower"},
      {"measurement": "total symptom score (am and pm) versus placebo", "setting": "human Rhinovirus (HRV) [2]; day 2 until the end of the study, FIGS. 2 and 3", "result": "lower"},
      {"measurement": "severity of the symptoms assessed separately versus placebo", "setting": "human Rhinovirus (HRV) [2]; scores added over 5 day period, FIG. 4", "result": "very clearly lower"}
    ]}
  ]
}
